Data on 14 molecules can be found in patent US11142527B2, “Dihydropyrimidine compounds and uses thereof in medicine” (SUNSHINE LAKE PHARMA CO., LTD., priority 2017, dated 2021).

Structures are written as SMILES. Some results are limits rather than exact numbers.

The subject of one series is HBV. The series can be described thus: Test of anti HBV activity in vitro (viral DNA by qPCR). The note with it: Hepatitis B virus; HepG2.2.15 cells, viral DNA in cell culture supernatant by qPCR; read-out: EC50 values of the compound of the invention on viral replication. In kind it is cell-based. Summed up:
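HepG2.2.15 cells (integrated HBV genome) were grown to confluence, then treated with compound in 4-fold dilutions from 4 μM final (0.5% DMSO). Secreted viral DNA in supernatant was quantified by SYBR qPCR against an HBV plasmid standard curve; EC50 from four-parameter nonlinear regression of concentration versus copy number.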
(In qPCR the cycle at which signal appears reflects the starting amount.)

Series [1] is described as follows: Cytotoxicity test with CellTiter Glo. In kind it is cell-based. The following applies: human, HepG2.2.15 cells, highest concentration 150 μM, read-out: CC50 values of the compounds of the invention. In a few lines: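 HepG2.2.15 cells (3000/well) exposed to serially diluted compound, highest final concentration 150 μM, for 4 days at 37 °C. Viability read by CellTiter Glo, cytotoxicity % taken relative to DMSO controls, and CC50 obtained by four-parameter nonlinear regression.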

Regarding `COC(=O)C1=C(CN2CCN3C(=O)N(Cc4ccc(Oc5ccc(C#N)cc5)cc4)C[C@@H]3C2)NC(c2nccs2)=N[C@H]1c1ccc(F)cc1Cl` [Example 102, (R)-methyl 4-(2-chloro-4-fluorophenyl)-6-(((S)-2-(4-(4-cyanophenoxy)benzyl)-3-oxohexahydroimidazo[1,5-a]pyrazin-7(1H)-yl)methyl)-2-(thiazol-2-yl)-1,4-dihydropyrimidine-5-carboxylate], the half-maximal effective concentration (EC50) – broadly, the concentration that produces a half-maximal response – in the series on HBV was determined as 4.2 nM. Moreover, in series [1], the CC50 (in general, the concentration that lowers cell viability or growth by half) at 4 days was more than 150000 nM.
With `COC(=O)C1=C(CN2CCN3C(=O)N(c4ccc(Oc5ccc(C(=O)O)cc5F)cn4)C[C@@H]3C2)NC(c2nccs2)=N[C@H]1c1ccc(F)cc1Cl` [Example 22, 4-((6-((S)-7-(((R)-6-(2-chloro-4-fluorophenyl)-5-(methoxycarbonyl)-2-(thiazol-2-yl)-3,6-dihydropyrimidin-4-yl)methyl)-3-oxohexahydroimidazo[1,5-a]pyrazin-2(3H)-yl)pyridin-3-yl)oxy)-3-fluorobenzoic acid], in the series with HBV, the EC50 turned out to be 18 nM. Also, the cytotoxic concentration (CC50) at 4 days in series [1] was more than 150000 nM.
Take `COC(=O)C1=C(CN2CCN3C(=O)N(c4ccc(Oc5ccc(C(=O)N(CCO)Cc6ccccc6)cc5)cc4)C[C@@H]3C2)NC(c2nccs2)=N[C@H]1c1ccc(F)cc1Cl` [Example 63, (R)-methyl 6-(((S)-2-(4-(4-(benzyl(2-hydroxyethyl)carbamoyl)phenoxy)phenyl)-3-oxohexahydroimidazo[1,5-a]pyrazin-7(1H)-yl)methyl)-4-(2-chloro-4-fluorophenyl)-2-(thiazol-2-yl)-1,4-dihydropyrimidine-5-carboxylate]: in the series with HBV, the half-maximal effective concentration (EC50) was 27.6 nM. The CC50 at 4 days in series [1] was more than 150000 nM.
The like results for `COC(=O)C1=C(CN2CCN3C(=O)N(c4ccc(Oc5ccc(C(=O)N6CCC(CO)CC6)cc5)cc4)C[C@@H]3C2)NC(c2nccs2)=N[C@H]1c1ccc(F)cc1Cl` [Example 60, (R)-methyl 4-(2-chloro-4-fluorophenyl)-6-(((S)-2-(4-(4-(4-(hydroxymethyl)piperidine-1-carbonyl)phenoxy)phenyl)-3-oxohexahydroimidazo[1,5-a]pyrazin-7(1H)-yl)methyl)-2-(thiazol-2-yl)-1,4-dihydropyrimidine-5-carboxylate] were, in that order, 32.3 nM and more than 150000 nM.
Turning to `COC(=O)C1=C(CN2CCN3C(=O)N(c4cc(F)cc(Oc5ccc(C(=O)O)cc5F)c4)C[C@@H]3C2)NC(c2nccs2)=N[C@H]1c1ccccc1Cl` [Example 93, 4-(3-((S)-7-(((R)-6-(2-chlorophenyl)-5-(methoxycarbonyl)-2-(thiazol-2-yl)-3,6-dihydropyrimidin-4-yl)methyl)-3-oxohexahydroimidazo[1,5-a]pyrazin-2(3H)-yl)-5-fluorophenoxy)-3-fluorobenzoic acid], in the series on HBV, the EC50 was 21.5 nM. In addition, the CC50 at 4 days in series [1] is more than 150000 nM.
On the same counts, the results for `COC(=O)C1=C(CN2CCN3C(=O)N(c4ccc(Oc5ccc(C(=O)NC(C)(C)CO)cc5)cc4)C[C@@H]3C2)NC(c2nccs2)=N[C@H]1c1ccc(F)cc1Cl` [Example 68, (R)-methyl 4-(2-chloro-4-fluorophenyl)-6-(((S)-2-(4-(4-((1-hydroxy-2-methylprop-2-yl)carbamoyl)phenoxy)phenyl)-3-oxohexahydroimidazo[1,5-a]pyrazin-7(1H)-yl)methyl)-2-(thiazol-2-yl)-1,4-dihydropyrimidine-5-carboxylate] are 11.1 nM and more than 150000 nM.
On to `COC(=O)C1=C(CN2CCN3C(=O)N(c4nc(-c5ccc(CC(C)(C)C(=O)O)cc5)cs4)C[C@@H]3C2)NC(c2nccs2)=N[C@H]1c1ccc(F)cc1Cl` [Example 36, 3-(4-(2-((S)-7-(((R)-6-(2-chloro-4-fluorophenyl)-5-(methoxycarbonyl)-2-(thiazol-2-yl)-3,6-dihydropyrimidin-4-yl)methyl)-3-oxohexahydroimidazo[1,5-a]pyrazin-2(3H)-yl)thiazol-4-yl)phenyl)-2,2-dimethylprop ionic acid], for which the 50% effective concentration (EC50) with HBV stood at 22 nM. The 50% cytotoxic concentration (CC50) at 4 days in series [1] was more than 150000 nM.
With `COC(=O)C1=C(CN2CCN3C(=O)N(c4cc(F)cc(-c5ccc(C(=O)O)c(F)c5)c4)C[C@@H]3C2)NC(c2nccs2)=N[C@H]1c1ccc(F)cc1Cl` [Example 119], in the series with HBV, the concentration for a half-maximal effect (EC50) was 15.6 nM. Besides, in series [1], the CC50 at 4 days was more than 150000 nM.
With `COC(=O)C1=C(CN2CCN3C(=O)N(c4ccc(Oc5ccc(C#N)cc5)cc4)C[C@@H]3C2)NC(c2nccs2)=N[C@H]1c1ccc(F)cc1Cl` [Example 97, (R)-methyl 4-(2-chloro-4-fluorophenyl)-6-(((S)-2-(4-(4-cyanophenoxy)phenyl)-3-oxohexahydroimidazo[1,5-a]pyrazin-7(1H)-yl)methyl)-2-(thiazol-2-yl)-1,4-dihydropyrimidine-5-carboxylate], the 50% effective concentration (EC50) with HBV stood at 36.8 nM. The 50% cytotoxic concentration (CC50) at 4 days in series [1] is more than 150000 nM.
Turning to `COC(=O)C1=C(CN2CCN3C(=O)N(CCC#Cc4ccc(C(=O)O)cc4)C[C@@H]3C2)NC(c2nccs2)=N[C@H]1c1ccc(F)cc1Cl` [Example 54, 4-(4-((S)-7-(((R)-6-(2-chloro-4-fluorophenyl)-5-(methoxycarbonyl)-2-(thiazol-2-yl)-3,6-dihydropyrimidin-4-yl)methyl)-3-oxohexahydroimidazo[1,5-a]pyrazin-2(3H)-yl)but-1-yn-1-yl)benzoic acid], in the series on HBV, the half-maximal effective concentration (EC50) was determined as 61.3 nM. In addition, the cytotoxic concentration (CC50) at 4 days in series [1] was more than 150000 nM.
On to `COC(=O)C1=C(CN2CCN3C(=O)N(c4ccc(-c5nc(C6CC6)c[nH]5)cc4)C[C@@H]3C2)NC(c2nccs2)=N[C@H]1c1ccc(F)cc1Cl` [Example 111, (R)-methyl 4-(2-chloro-4-fluorophenyl)-6-(((S)-2-(4-(4-cyclopropyl-1H-imidazol-2-yl)phenyl)-3-oxohexahydroimidazo[1,5-a]pyrazin-7(1H)-yl)methyl)-2-(thiazol-2-yl)-1,4-dihydropyrimidine-5-carboxylate], for which the 50% effective concentration (EC50) with HBV amounted to 7.5 nM. Besides, the half-maximal cytotoxic concentration (CC50) at 4 days in series [1] is more than 150000 nM.
As for `COC(=O)C1=C(CN2CCN3C(=O)N(c4ccnc(-c5ccc(C(=O)O)cc5)c4)C[C@@H]3C2)NC(c2nccs2)=N[C@H]1c1ccc(F)cc1Cl` [Example 123, 4-(4-((S)-7-(((R)-6-(2-chloro-4-fluorophenyl)-5-(methoxycarbonyl)-2-(thiazol-2-yl)-3,6-dihydropyrimidin-4-yl)methyl)-3-oxohexahydroimidazo[1,5-a]pyrazin-2(3H)-yl)pyridin-2-yl)benzoic acid], the concentration giving a half-maximal response (EC50) with HBV worked out at 37.9 nM. The CC50 at 4 days in series [1] is more than 150000 nM.
Regarding `COC(=O)C1=C(CN2CCN3C(=O)N(c4ccc(N5CCC(C(=O)O)CC5)cc4F)C[C@@H]3C2)NC(c2nccs2)=N[C@H]1c1ccc(F)cc1Cl` [Example 31, 1-(4-((S)-7-(((R)-6-(2-chloro-4-fluorophenyl)-5-(methoxycarbonyl)-2-(thiazol-2-yl)-3,6-dihydropyrimidin-4-yl)methyl)-3-oxohexahydroimidazo[1,5-a]pyrazin-2(3H)-yl)-3-fluorophenyl)piperidine-4-carboxylic acid], the EC50 with HBV came out at 16 nM. In series [1], the half-maximal cytotoxic concentration (CC50) at 4 days was more than 150000 nM.
For `COC(=O)C1=C(CN2CCN3C(=O)N(c4ccc(Oc5ccc(C(=O)N6CCOCC6)cc5)cc4)C[C@@H]3C2)NC(c2nccs2)=N[C@H]1c1ccc(F)cc1Cl` [Example 56, (R)-methyl 4-(2-chloro-4-fluorophenyl)-6-(((S)-2-(4-(4-(morpholine-4-carbonyl)phenoxy)phenyl)-3-oxohexahydroimidazo[1,5-a]pyrazin-7(1H)-yl)methyl)-2-(thiazol-2-yl)-1,4-dihydropyrimidine-5-carboxylate], the EC50 in the series with HBV came out at 12.4 nM. Moreover, the CC50 at 4 days in series [1] was more than 150000 nM.
